Results taken from patent publication US12421254B2, “KRAS modulators and uses thereof” (Quanta Therapeutics, Inc., priority 2023, dated 2025).
pIC50: −log10 of the molar value.

Columns and labels:
[1] = target: GST-tagged KRAS-G12V (2-169) (Homo sapiens, UniProt P01116, G12V); experiment: Nucleotide exchange assay (NEA), SOS-mediated, HTRF, KRAS G12V; format: biochemical; conditions: Table 4; IC50 extracted at 90 min; 80 nM SOS
In short: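 Exchange onto fluorescent GTP-DY-647P1 (150 nM final) catalysed by 80 nM SOS1cat was followed by Tb-anti-GST HTRF at RT for up to 90 min, after 1 h compound pre-incubation with 0.25 nM GST-tagged KRAS-G12V (2-169), pH 7.3. DMSO = 0%, no-SOS blank = 100%; 4-parameter IC50 taken at 90 min.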

[2] = system: phospho-ERK in SW620 (KRAS-G12V) cells; experiment: pERK In Cell Western (ICW) assay (Method B), SW620; format: cell-based; conditions: Homo sapiens, SW-620, 3 h, Table 4
Description: pERK ICW is a high throughput screening assay to evaluate the cellular potency of mutant KRAS small molecule inhibitors. KRAS mutant cell lines AGS, GP2D (KRAS-G12D) as well as SW620 (KRAS-G12V) were purchased from ATCC and maintained respectively in RPMI/DMEM/RPMI medium supplemented with 10% fetal bovine serum.
Cells grown in exponential phase were trypsinized, resuspended in fresh media, and viable cells were counted using a cell counter with Trypan Blue (BioRad TC20). Cells were seeded into 384-well plate (Greiner 781091) at density of 5,000 cells/well for AGS and 10,000 cells/well for GP2D/SW620 and allowed to grow overnight in a 37° C. CO2 incubator. The next day, compounds were dispensed into wells with a ½ log, 9-point serial dilution using a Tecan D300e dispenser and incubated for 3 hours in a 37° C. CO2 incubator. Cells were then fixed with paraformaldehyde (Electron Microscopy Sciences, 15710, 4% final concentration) for 30 min, permeabilized with wash buffer (1×PBS+0.1% Triton X-100) for 30 min and blocked with Odyssey blocking buffer (Li—COR 927-70001) for 1 hour, all at room temperature (RT). Phospho-ERK antibody (CST 4370L) was diluted 1:500 in Odyssey T20 (PBS) antibody diluent (Li—COR 927-75001) and incubated with cells overnight at 4° C. The next day, plates were washed 5× with wash buffer, incubated with IRDye 800 CW, Goat anti-Rabbit secondary antibody (Li—COR 926-32211, 1:800) and DRAQ5 (CST 4084L, 1:5,000) diluted in Odyssey T20 (PBS) antibody diluent for 1 hour, washed 5×, and imaged on an Odyssey CLx imaging system.
For data analysis, signal intensities from 800 (phosphor-ERK) and 700 (DRAQ5) channels were extracted, and phospho-ERK signals were normalized to DRAQ5 signals for each well and percent of blank control values were computed. Data were then imported into Graphpad Prism to compute half-maximal inhibitory concentrations (IC50) using a 4-parameter variable slope model. Z-factor for each plate was computed from signals derived from wells treated with either DMSO or 5 μM of control compound. AGS pERK ICW (Method B) IC50 (uM) values of selected compounds are depicted in Table 2 with compounds having a value ≥0.001 uM to 0.01 uM as ++++; ≥0.01 uM to 0.1 uM as +++; ≥0.1 uM to 1 uM as ++; ≥1 uM to 10 uM as + and ≥10 uM as NA.

[3] = target: GST-tagged KRAS-G12D (2-169) (Homo sapiens, UniProt P01116, G12D); experiment: Nucleotide exchange assay (NEA), SOS-mediated, HTRF, KRAS G12D; format: biochemical; conditions: Table 4; IC50 extracted at 30 min; 20 nM SOScat; read-out: NEA G12D IC50
In short: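 SOS1cat-driven loading of fluorescent GTP-DY-647P1 (150 nM) onto GST-KRAS-G12D (2-169, 0.25 nM) read by time-resolved FRET; SOScat 20 nM, compound preincubated with KRAS 1 h at RT. Signal blanked to no-SOS reactions, normalized to DMSO; IC50 fitted from the 30-min read.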

Sequence of GST-tagged KRAS-G12V (2-169) (P01116 2-169 isoform P01116-2 G12V): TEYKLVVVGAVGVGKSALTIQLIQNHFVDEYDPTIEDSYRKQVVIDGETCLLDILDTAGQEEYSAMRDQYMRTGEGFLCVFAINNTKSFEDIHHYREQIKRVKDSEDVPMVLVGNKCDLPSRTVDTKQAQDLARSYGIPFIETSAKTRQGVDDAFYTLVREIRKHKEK
Sequence of GST-tagged KRAS-G12D (2-169) (P01116 2-169 isoform P01116-2 G12D): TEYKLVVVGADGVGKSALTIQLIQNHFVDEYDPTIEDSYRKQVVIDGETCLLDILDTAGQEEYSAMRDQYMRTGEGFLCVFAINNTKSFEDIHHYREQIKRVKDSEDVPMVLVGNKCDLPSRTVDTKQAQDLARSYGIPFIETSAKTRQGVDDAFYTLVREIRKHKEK

Structure (SMILES)	pIC50 [1]	pIC50 [2]	pIC50 [3]
C#CC(C)N(CC#N)c1nc(OC[C@@]23CCCN2C[C@H](F)C3)nc(N2CC3(C2)SCc2sc(N)c(C#N)c23)n1 (stereo partly drawn) [Compound 244, 2-amino-1′-[4-[cyanomethyl(1-methylprop-2-ynyl)amino]-6-[[(2R,8S)-2-fluoro-1,2,3,5,6,7-hexahydropyrrolizin-8-yl]methoxy]-1,3,5-triazin-2-yl]spiro[6H-thieno[3,4-b]thiophene-4,3′-azetidine]-3-carbonitrile]	> 8.00	6.00 to 7.00	> 8.00
CC(CC#N)N(C)c1nc(OC[C@@]23CCCN2C[C@H](F)C3)nc(N2CC3(C2)SCc2sc(N)c(C#N)c23)n1 (stereo partly drawn) [Compound 249, 2-amino-1′-[4-[(2-cyano-1-methyl-ethyl)-methyl-amino]-6-[[(2R,8S)-2-fluoro-1,2,3,5,6,7-hexahydropyrrolizin-8-yl]methoxy]-1,3,5-triazin-2-yl]spiro[6H-thieno[2,3-c]thiophene-4,3′-azetidine]-3-carbonitrile]	> 8.00	4.70 to 6.00	> 8.00
N#Cc1c(N)sc2c1C1(CN(c3nc(OC[C@@]45CCCN4C[C@H](F)C5)nc(N(CCO)C4(C#N)CC4)n3)C1)SC2 (racemic) [Compound 240, 2-amino-1′-[4-[(1-cyanocyclopropyl)-(2-hydroxyethyl)amino]-6-[[rac-(2R,8S)-2-fluoro-1,2,3,5,6,7-hexahydropyrrolizin-8-yl]methoxy]-1,3,5-triazin-2-yl]spiro[6H-thieno[3,4-b]thiophene-4,3′-azetidine]-3-carbonitrile]	> 8.00	7.00 to 8.00	> 8.00
N#Cc1c(N)sc2c1C1(CN(c3nc(OC[C@@]45CCCN4C[C@H](F)C5)nc(N(CCO)CC4(C#N)CC4)n3)C1)SC2 [Compound 239, 2-amino-1′-[4-[(1-cyanocyclopropyl)methyl-(2-hydroxyethyl)amino]-6-[[(2R,8S)-2-fluoro-1,2,3,5,6,7-hexahydropyrrolizin-8-yl]methoxy]-1,3,5-triazin-2-yl]spiro[6H-thieno[2,3-c]thiophene-4,3′-azetidine]-3-carbonitrile]	> 8.00	6.00 to 7.00	> 8.00
N#CCN(Cc1c[nH]nn1)c1nc(OC[C@@]23CCCN2C[C@H](F)C3)nc(N2CC3(C2)SCc2sc(N)c(C#N)c23)n1 [Compound 245, 2-amino-1′-[4-[cyanomethyl(1H-triazol-4-ylmethyl)amino]-6-[[(2R,8S)-2-fluoro-1,2,3,5,6,7-hexahydropyrrolizin-8-yl]methoxy]-1,3,5-triazin-2-yl]spiro[6H-thieno[3,4-b]thiophene-4,3′-azetidine]-3-carbonitrile]	> 8.00	4.70 to 6.00	> 8.00
N#Cc1c(N)sc2c1C1(CN(c3nc(OC[C@@]45CCCN4C[C@H](F)C5)nc(N4[C@H]5CC[C@]4(CO)COC5)n3)C1)SC2 [Compound 200, 2′-amino-1-(4-(((2R,7aS)-2-fluorotetrahydro-1H-pyrrolizin-7a(5H)-yl)methoxy)-6-((1S,5S)-1-(hydroxymethyl)-3-oxa-8-azabicyclo[3.2.1]octan-8-yl)-1,3,5-triazin-2-yl)-6′H-spiro[azetidine-3,4′-thieno[3,4-b]thiophene]-3′-carbonitrile]	> 8.00	6.00 to 7.00	7.00 to 8.00
CCN(c1nc(OC[C@@]23CCCN2C[C@H](F)C3)nc(N2CC3(C2)SCc2sc(N)c(C#N)c23)n1)C1(C#N)CC1 [Compound 238, 2-amino-1′-[4-[(1-cyanocyclopropyl)-ethyl-amino]-6-[[(2R,8S)-2-fluoro-1,2,3,5,6,7-hexahydropyrrolizin-8-yl]methoxy]-1,3,5-triazin-2-yl]spiro[6H-thieno[3,4-b]thiophene-4,3′-azetidine]-3-carbonitrile]	> 8.00	7.00 to 8.00	> 8.00
CCN(c1nc(OC[C@@]23CCCN2C[C@H](F)C3)nc(N2CC3(C2)SCc2sc(N)c(C#N)c23)n1)[C@H](C)C#N [Compound 236, 2-amino-1′-[4-[[(1R)-1-cyanoethyl]-ethyl-amino]-6-[[(2R,8S)-2-fluoro-1,2,3,5,6,7-hexahydropyrrolizin-8-yl]methoxy]-1,3,5-triazin-2-yl]spiro[6H-thieno[3,4-b]thiophene-4,3′-azetidine]-3-carbonitrile; formic acid]	> 8.00	7.00 to 8.00	> 8.00
C#CCN(c1nc(OC[C@@]23CCCN2C[C@H](F)C3)nc(N2CC3(C2)SCc2sc(N)c(C#N)c23)n1)C1(C#N)CC1 [Compound 247, 2-amino-1′-[4-[(1-cyanocyclopropyl)-prop-2-ynyl-amino]-6-[[(2R,8S)-2-fluoro-1,2,3,5,6,7-hexahydropyrrolizin-8-yl]methoxy]-1,3,5-triazin-2-yl]spiro[6H-thieno[3,4-b]thiophene-4,3′-azetidine]-3-carbonitrile]	> 8.00	6.00 to 7.00	> 8.00
CCN(CC1(C#N)CC1)c1nc(OC[C@@]23CCCN2C[C@H](F)C3)nc(N2CC3(C2)SCc2sc(N)c(C#N)c23)n1 [Compound 241, 2-amino-1′-[4-[(1-cyanocyclopropyl)methyl-ethyl-amino]-6-[[(2R,8S)-2-fluoro-1,2,3,5,6,7-hexahydropyrrolizin-8-yl]methoxy]-1,3,5-triazin-2-yl]spiro[6H-thieno[2,3-c]thiophene-4,3′-azetidine]-3-carbonitrile]	> 8.00	6.00 to 7.00	> 8.00
CCN(CC#N)c1nc(OC[C@@]23CCCN2C[C@H](F)C3)nc(N2CC3(C2)SCc2sc(N)c(C#N)c23)n1 [Compound 237, 2-amino-1′-[4-[cyanomethyl(ethyl)amino]-6-[[(2R,8S)-2-fluoro-1,2,3,5,6,7-hexahydropyrrolizin-8-yl]methoxy]-1,3,5-triazin-2-yl]spiro[6H-thieno[3,4-b]thiophene-4,3′-azetidine]-3-carbonitrile]	> 8.00	7.00 to 8.00	> 8.00
CC1(O)CCCN(c2nc(OCC34CCCN3C(COc3cc(C(F)(F)F)ncn3)CC4)nc(N3CC4(C3)SCc3sc(N)c(C#N)c34)n2)C1 (single isomer, unassigned) [Compound 256A]	> 8.00	6.00 to 7.00	> 8.00
N#Cc1c(N)sc2c1C1(CN(c3nc(OC[C@@]45CCCN4C[C@H](F)C5)nc(N4CC(O)NC(=O)C45CC5)n3)C1)SC2 (stereo partly drawn) [Compound 255, 2-amino-1′-[4-[[(2R,8S)-2-fluoro-1,2,3,5,6,7-hexahydropyrrolizin-8-yl]methoxy]-6-(6-hydroxy-8-oxo-4,7-diazaspiro[2.5]octan-4-yl)-1,3,5-triazin-2-yl]spiro[6H-thieno[3,4-b]thiophene-4,3′-azetidine]-3-carbonitrile]	> 8.00	4.70 to 6.00	> 8.00
N#CCN(c1nc(OC[C@@]23CCCN2C[C@H](F)C3)nc(N2CC3(C2)SCc2sc(N)c(C#N)c23)n1)C1(C#N)CC1 [Compound 251, 2-amino-1′-[4-[(1-cyanocyclopropyl)-(cyanomethyl)amino]-6-[[(2R,8S)-2-fluoro-1,2,3,5,6,7-hexahydropyrrolizin-8-yl]methoxy]-1,3,5-triazin-2-yl]spiro[6H-thieno[3,4-b]thiophene-4,3′-azetidine]-3-carbonitrile]	> 8.00	7.00 to 8.00	> 8.00
